Experimental data: patent US20130071439A1, “METHODS AND COMPOSITIONS FOR TREATING BIOFILMS” (PRESIDENT AND FELLOWS OF HARVARD COLLEGE, priority 2010, published 2013)

Experiments:
[1] = system: B. subtilis strain NCIB3610; test: Colony biofilm formation on solid MSgg medium; type: cell-based, Bacillus subtilis; conditions: 4 days
Description: (§1) For colony formation on solid medium, cells were first grown to exponential growth phase in LB broth and 3 μl of culture were spotted onto solid MSgg medium containing 1.5% Bacto agar. The plates were incubated at 23° C. For pellicle formation in liquid medium, cells were grown to exponential phase and 6 μl of culture were mixed with 6 ml of medium in a 12-well plate (VWR). Plates were incubated at 23° C. Images of colonies and pellicles were taken using a SPOT camera (Diagnostic Instruments, USA).

eps operon (strain FC5) = test: Expression of PepsA-lacZ (β-galactosidase activity); type: cell-based, Bacillus subtilis
Description: (§2) Assays of β-galactosidase activity. Cells were cultured in MSgg medium at 37° C. in a water bath with shaking 1 ml of culture was collected at each time point. β-galactosidase activity was determined as described previously (Chai et al., Mol. Microbiol. 67:254 (2008)).

[2] = system: B. subtilis strain NCIB3610; test: Pellicle (biofilm) formation in liquid biofilm-inducing medium; type: cell-based, Bacillus subtilis; conditions: for effect on pellicle formation / effect on biofilm formation: 3 days; for biofilm-inhibition assay for B. subtilis: concentration not given
Description: as §1
To investigate whether mature biofilms produce a factor that triggers biofilm disassembly, the effect of concentrated and partially purified extracts of conditioned medium on pellicle formation when added to fresh medium was assayed. To this end, conditioned medium from an eight-day-old culture was applied to a C18 Sep Pak column. Concentrated eluate from the column was then added to a freshly inoculated culture. […] Further purification of the factor was achieved by eluting the cartridge in step-wise fashion with increasing concentrations of methanol.
D-tyrosine, D-leucine, D-tryptophan, and D-methionine were screened for inhibiting biofilm formation by B. subtilis both in liquid and on solid medium (FIG. 2A, 5, 6).
Next, the minimum concentration (MIC for Minimal Inhibitory Concentration) needed to prevent biofilm formation was determined.

B. subtilis [3] = test: Effect on cell growth in MSgg medium with shaking; type: cell-based, Bacillus subtilis
[4] = system: yqxM operon (strain FC122); test: Expression of PyqxM-lacZ (β-galactosidase activity); type: cell-based, Bacillus subtilis
Description: as §2

P.a. Harvard PA14 = test: Biofilm (colony architecture) formation on M63 defined solid medium; type: cell-based, Pseudomonas aeruginosa; conditions: 500 μM (L-tryptophan: concentration not given)
Source text: Similarly to Bacillus subtilis, Pseudomonas aeruginosa forms a complex architecture on defined medium. These complex structures require the proper formation and assembly of the extra-cellular matrix. […] For these experiments, the organism/strain was P.a. Harvard PA14, the culture medium was M63 and the cell inoculation was at 1.5×10^9 cfu.

[5] = system: Pseudomonas aeruginosa PA14; test: Biofilm formation on polystyrene, crystal violet staining; type: cell-based
Description: (§3) Crystal violet staining was done as described previously (O'Toole et al., Mol. Microbiol. 30:295 (1998)) except that the cells were grown in […]. Wells were stained with 500 μl of 1.0% Crystal-violet dye, rinsed twice with 2 ml double-distilled water and thoroughly dried.
P. aeruginosa strain […] was grown in 12-well polystyrene plates for 48 hours at 30° C. in M63 medium containing glycerol (0.2%) and Casamino acids ([…]). Additionally added to the wells were no amino acids (untreated), D-tyrosine or the D-amino acid equimolar mixture. Cells bound to the polystyrene were visualized by washing away unbound cells and then staining with crystal violet. Wells were stained with […] of 1.0% Crystal-violet dye, rinsed twice with 2 ml double-distilled water and thoroughly dried.
(§4) For experiments reported in Table 1, the organism/strain was S.a. Harvard SCO1, the culture medium was TSB and the cell inoculation was at 2×10^9 cfu. For experiments reported in Table 2, the organism/strain was […], the culture medium was M63 and the cell inoculation was at 1.5×10^9 cfu. Biofilm was visualized using the crystal violet method.

TasA fibers = test: Cell association of TasA fibers by electron microscopy (immunogold); type: cell-based, Bacillus subtilis; conditions: 0.1 mM, 12 hours, Δeps cells
Description: Transmission electron microscopy and immunolabeling. Samples were diluted with distilled water and adsorbed onto a carbon or formvar/carbon coated grid. The grid surface was made hydrophilic prior to use with glow discharge in a vacuum evaporator. Once the specimen was adsorbed onto the film surface, the excess sample was blotted off on a filter paper (Whatman #1) and the grid was floated on 5 μl of stain solution (1-2% aqueous uranyl acetate) for a few minutes and then blotted off. The samples were dried and examined in a Tecnai™ G^2 Spirit BioTWIN microscope at an accelerating voltage of 80 KV. Images were taken with an AMT 2k CCD camera. […]
The cells were grown to stationary phase with shaking in biofilm-inducing medium in the presence or absence of D-tyrosine (6 μM). […] When the cells were washed by centrifugation, resuspended and then examined by fluorescence microscopy, untreated cells (which were often in clumps) were seen to be intensely decorated with TasA-mCherry. […] The localization of unmodified TasA protein was also analyzed by transmission electron microscopy using gold-labeled anti-TasA antibodies. […]

Pseudomonas aeruginosa = test: Attached single cells in 6 well plate, Syto-9/SYTOX staining; type: cell-based
Description: An alternative method to observe biofilm formation on a 6 well plate with or without D-amino acids and using Syto-9 staining was as follows: Pseudomonas aeruginosa biofilms were washed twice with PBS and then fixed for at least an hour in 5% Glutaraldehyde in PBS. The fixed biofilms were then rinsed once again with PBS and soaked in 0.1% v/v Triton X-100 in PBS (PBST) for 15 minutes. The solution was exchanged with 0.1 nM SYTOX green (Invitrogen) in cold PBST and gently rocked in the dark for at least 15 minutes. Fluorescence images of the biofilms were captured with a Leica DMRX compound microscope using a Xe lamp and a K3 Leica filtercube. […] The amount of attached single cells was quantified using image J. The decrease in the amount of cells attached to the epoxy surfaces soaked with D-aa compared with the L-aa control was substantially more.

cell wall = test: Incorporation of radioactive amino acids into the cell wall; type: cell-based, Bacillus subtilis; conditions: 14C-labelled, 10 μCi/ml, 2 h at 37° C.
Description: Incorporation of amino acids into the cell wall. Cells in 50 ml of culture at the mid exponential phase of growth were harvested by centrifugation and washed with 0.05 M of phosphate buffer (pH 7) and re-suspended in 5 ml of the same buffer. […] The radioactivity of whole cells and cell wall fraction was monitored, and, at intervals samples were removed. For measurement of incorporation into whole cells, 0.1 ml samples were collected. For measurements of incorporation into cell wall, 0.5 ml samples were collected. The cells were harvested by centrifugation and re-suspended in SM buffer [0.5 M sucrose, 20 mM MgCl2, and 10 mM potassium phosphate at pH (6.8)] containing 0.1 mg/ml lysozyme. The cells were then incubated at 37° C. for 10 min. Next, the resulting protoplasts were removed by centrifugation at 5000 rpm for 10 min, leaving the cell wall material in the supernatant fluid. […] Finally, 10 ml of 5% trichloroacetic acid was added to the whole cell samples and the cell wall material and maintained on ice for at least 30 min. The TCA-insoluble material was collected on Millipore filters (0.22 μm pore size, Millipore) and washed with 5% TCA. The filters were air-dried and placed in scintillation vials and the TCA-insoluble counts per minute were determined using a scintillation counter.

B. subtilis [6] = test: Disruption of existing biofilms (3 day-old pellicles); type: cell-based, Bacillus subtilis; conditions: 3 μM added to 3 day-old culture, 8 hours
TasA-mCherry = type: cell-based, Bacillus subtilis; conditions: 6 μM
Description: For fluorescence microscopy analysis, 1 ml of culture was harvested. The cells were washed with PBS buffer and suspended in 50 μl of PBS buffer. Cover slides were pretreated with poly L-lysine (Sigma). Samples were examined using an Olympus workstation BX61 microscope. Images were taken using the automated software program SimplePCI and analyzed with program MetaMorph (Universal Imaging Corporation).
The cells were grown to stationary phase with shaking in biofilm-inducing medium in the presence or absence of D-tyrosine (6 μM). […] When the cells were washed by centrifugation, resuspended and then examined by fluorescence microscopy, untreated cells (which were often in clumps) were seen to be intensely decorated with TasA-mCherry. […] The localization of unmodified TasA protein was also analyzed by transmission electron microscopy using gold-labeled anti-TasA antibodies. […] 24-hour-old cultures were incubated without (images 1 and 2) or with (images 3-6) D-tyrosine (0.1 mM) for an additional 12 hours. TasA fibers were stained by immunogold labeling using anti-TasA antibodies, and visualized by transmission electron microscopy as described in the Examples. […] Filled arrows indicate fiber bundles; open arrows indicate individual fibers. The scale bar is 500 nm. The scale bar in the enlargements of images 2, 4 and 6 is 100 nm. […]

S. aureus (strain SCO1) = test: Biofilm formation on polystyrene, crystal violet staining; type: cell-based, Staphylococcus aureus; conditions: 50 μM, 24 hours at 37° C., TSB
Description: as §3
The effect of D-amino acids on biofilm formation by other bacteria was examined. The pathogenic bacterium Staphylococcus aureus forms biofilms on plastic surfaces (Otto, Curr. Top. Microbiol. Immunol. 322:207 (2008)), which can be detected by washing away unbound cells and staining the bound cells with crystal violet. […] Additionally added to the wells were no amino acids (untreated), D-tyrosine (50 μM) or the D-amino acid mixture ([…] each). Cells bound to the polystyrene were visualized by washing away unbound cells and then staining with crystal violet.
as §4, with “method. The data is shown below in Tables 1 and 2:” for “method.”
For experiments reported in Tables 3 and 4, the organism/strain was S.a. Harvard SCO1, the culture medium was TSB and the cell inoculation was at 2×10^9 cfu. […]

[7] = complete inhibition of pellicle formation

SMILES: CC(C)C[C@@H](N)C(=O)O [D-Leu, D-leucine]
- effect on biofilm formation on solid medium ([1]; 8.5 mM): inhibited biofilm formation
- eps expression (eps operon (strain FC5); 8.5 mM): substantially the same as the untreated sample
- effect on pellicle formation ([2]; 8.5 mM added to freshly inoculated culture in biofilm-inducing medium): significant inhibition of biofilm growth
- minimum concentration (MIC) needed to prevent biofilm formation [2, 7]: around 1 mM
- biofilm-inhibition assay for B. subtilis [2]: significant inhibition of biofilm growth
- cell growth (B. subtilis [3]; 8.5 mM): substantially the same as the untreated sample
- yqxM expression ([4]; 8.5 mM): substantially the same as the untreated sample

SMILES: N[C@H](Cc1ccccc1)C(=O)O [D-Phe, D-phenylalanine]
- biofilm-inhibition assay for B. subtilis [2]: not effective

SMILES: N[C@@H](Cc1ccc(O)cc1)C(=O)O [L-Tyr, L-tyrosine, reference compound]
- effect on biofilm formation on defined medium (P.a. Harvard PA14): did not

SMILES: CSCC[C@H](N)C(=O)O [L-methionine, reference compound]
- effect on biofilm formation ([2]; 5 mM in MSgg medium): Only the D-amino acids were active

SMILES: CSCC[C@@H](N)C(=O)O [D-Met, D-methionine]
- inhibition at 10 µM ([5]; Pseudomonas aeruginosa, PA14, 10 μM, 48 h/30° C., Polystyrene, read-out: % Inhibition relative to control (0%, <50%, 50-90%, >90%)): 0%
- inhibition at 100 µM ([5]; Pseudomonas aeruginosa, PA14, 100 μM, 48 h/30° C., Polystyrene, read-out: % Inhibition relative to control (0%, <50%, 50-90%, >90%)): 0%
- inhibition at 500 µM ([5]; Pseudomonas aeruginosa, PA14, 500 μM, 48 h/30° C., Polystyrene, read-out: % Inhibition relative to control (0%, <50%, 50-90%, >90%)): 0%
- effect on biofilm formation ([2]; 2 mM in MSgg medium): active in inhibiting biofilm formation
- minimum concentration (MIC) needed to prevent biofilm formation [2, 7]: around 1 mM
- biofilm-inhibition assay for B. subtilis [2]: significant inhibition of biofilm growth

SMILES: N[C@H](Cc1ccc(O)cc1)C(=O)O [D-Tyr, D-tyrosine]
- effect on biofilm formation on defined medium (P.a. Harvard PA14): inhibited biofilm formation on defined medium
- effect on biofilm formation ([5]; 10 μM, 48 hours at 30° C., M63): effective in preventing biofilm formation
- effect on biofilm formation on solid medium ([1]; 3 μM): inhibited biofilm formation
- cell association of TasA fibers (TasA fibers): largely undecorated with TasA fibers
- eps expression (eps operon (strain FC5); 3 μM): substantially the same as the untreated sample
- number of cells attached to the bottom of the biofilm plate (Pseudomonas aeruginosa): dramatic decrease
- effect on pellicle formation ([2]; 3 μM added to freshly inoculated culture in biofilm-inducing medium): significant inhibition of biofilm growth
- minimum concentration (MIC/MBIC) needed to prevent biofilm formation [2, 7]: about 100 nM
- biofilm-inhibition assay for B. subtilis [2]: significant inhibition of biofilm growth
- incorporation into the cell wall (cell wall): incorporated into the cell wall
- effect on existing pellicles (B. subtilis [6]): conspicuous breakdown of pellicles
- cell association of TasA-mCherry (fluorescence microscopy of washed cells) (TasA-mCherry): only low levels of fluorescence
- total accumulation of TasA-mCherry (total fluorescence) (TasA-mCherry; grown to stationary phase): little or no effect
- cell growth (B. subtilis [3]; 3 μM): substantially the same as the untreated sample
- effect on biofilm formation (S. aureus (strain SCO1)): highly effective in preventing biofilm formation
- yqxM expression ([4]; 3 μM): substantially the same as the untreated sample

SMILES: N[C@@H](Cc1c[nH]c2ccccc12)C(=O)O [L-tryptophan, reference compound]
- effect on biofilm formation on defined medium (P.a. Harvard PA14): did not
- effect on biofilm formation ([2]; 5 mM in MSgg medium): Only the D-amino acids were active

SMILES: N[C@H](Cc1c[nH]c2ccccc12)C(=O)O [D-Trp, D-tryptophan]
- effect on biofilm formation on defined medium (P.a. Harvard PA14): inhibited biofilm formation on defined medium
- effect on biofilm formation ([2]; 0.5 mM in MSgg medium): active in inhibiting biofilm formation
- minimum concentration (MIC) needed to prevent biofilm formation [2, 7]: around 1 mM
- biofilm-inhibition assay for B. subtilis [2]: significant inhibition of biofilm growth

SMILES: C[C@@H](N)C(=O)O [D-alanine]
- biofilm-inhibition assay for B. subtilis [2]: not effective
